ChEMBL document CHEMBL3596163, “Discovery of imidazo[1,5-a]pyridines and -pyrimidines as potent and selective RORc inverse agonists” (Bioorg Med Chem Lett, 2015)

What was measured:
[1] = biological target: T1, Peroxisome proliferator-activated receptor gamma (Homo sapiens, UniProt P37231); assay: Displacement of fluormone PPARgamma green from GST-tagged human PPARgamma-LBD after 2 hrs by fluorescence polarization assay
T1 sequence (P37231 whole entry): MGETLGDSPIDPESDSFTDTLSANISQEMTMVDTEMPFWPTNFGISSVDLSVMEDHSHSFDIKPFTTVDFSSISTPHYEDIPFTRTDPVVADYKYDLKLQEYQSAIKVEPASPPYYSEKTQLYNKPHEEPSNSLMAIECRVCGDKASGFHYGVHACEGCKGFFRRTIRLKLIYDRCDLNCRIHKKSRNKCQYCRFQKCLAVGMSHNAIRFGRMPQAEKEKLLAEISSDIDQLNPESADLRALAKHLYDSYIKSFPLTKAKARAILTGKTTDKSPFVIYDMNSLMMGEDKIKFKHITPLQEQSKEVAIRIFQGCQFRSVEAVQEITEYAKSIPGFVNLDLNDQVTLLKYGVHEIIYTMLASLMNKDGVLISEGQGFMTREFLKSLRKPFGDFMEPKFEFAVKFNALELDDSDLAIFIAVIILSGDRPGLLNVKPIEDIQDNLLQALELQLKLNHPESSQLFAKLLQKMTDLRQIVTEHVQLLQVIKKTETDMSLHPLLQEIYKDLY

[2] = biological target: T2, Nuclear receptor ROR-gamma (Homo sapiens, UniProt P51449); assay: Inverse agonist activity at N-terminal 6xHis-tagged human RORc ligand binding domain (241 to 486) expressed in bacterial expression system assessed as inhibition of SRC1 co-activator peptide recruitment after 3 hrs by TR-FRET analysis; format: functional
T2 sequence (P51449 whole entry): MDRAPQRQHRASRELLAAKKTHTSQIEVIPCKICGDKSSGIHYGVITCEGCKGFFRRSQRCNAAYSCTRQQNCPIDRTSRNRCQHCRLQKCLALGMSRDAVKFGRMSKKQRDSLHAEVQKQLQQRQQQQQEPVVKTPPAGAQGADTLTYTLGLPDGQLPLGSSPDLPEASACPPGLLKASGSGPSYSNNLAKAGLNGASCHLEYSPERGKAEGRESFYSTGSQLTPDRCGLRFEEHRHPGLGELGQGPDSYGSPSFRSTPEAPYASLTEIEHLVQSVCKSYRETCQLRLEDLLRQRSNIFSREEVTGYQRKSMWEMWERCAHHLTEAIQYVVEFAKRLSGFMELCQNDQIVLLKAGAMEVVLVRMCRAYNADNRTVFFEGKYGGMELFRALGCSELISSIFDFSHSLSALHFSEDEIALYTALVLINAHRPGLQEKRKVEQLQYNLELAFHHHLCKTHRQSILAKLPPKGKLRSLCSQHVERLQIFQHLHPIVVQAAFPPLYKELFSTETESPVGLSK

[3] = Lipophilicity, log D of the compound at pH 7.4; format: physicochemical; conditions: buffer

IC50 [1] [µM] | EC50 [2] [µM] | logD [3] | Structure (SMILES)
> 10 | 0.54 | 0.4 | O=C(c1c(Cl)cccc1C(F)(F)F)c1nc(N2CCC(C(=O)O)CC2)c2ccccn12
 | 0.4 | 1.3 | O=C(c1c(Cl)cccc1C(F)(F)F)c1nc([C@H]2CC[C@H](C(=O)O)CC2)c2ccccn12
 | 4.3 | 1.8 | O=C(c1c(Cl)cccc1C(F)(F)F)c1nc([C@H]2CC[C@@H](C(=O)O)CC2)c2ccccn12
> 10 | 0.44 | 0.3 | O=C(c1c(Cl)cccc1C(F)(F)F)c1nc(N2CC[C@H](C(=O)O)[C@@H](O)C2)c2ccccn12 (stereo in doubt)
 | 6.8 |  | O=C(c1c(Cl)cccc1C(F)(F)F)c1nc(N2CCC(O)(C(=O)O)CC2)c2ccccn12
1.8 | 0.1 | 1.5 | O=C(c1c(Cl)cccc1C(F)(F)F)c1nc(C2=CCC(C(=O)O)CC2)c2ccccn12 (centres undefined)
4.2 | 0.084 | 0.3 | O=C(O)c1ccc(-c2nc(C(=O)c3c(Cl)cccc3C(F)(F)F)n3cccnc23)cc1
> 10 | 0.097 | 0.4 | O=C(c1c(Cl)cccc1C(F)(F)F)c1nc(N2CC[C@@H](C(=O)O)[C@H](O)C2)c2ccccn12 (stereo in doubt)

The remaining lines, values behind:

Structure (SMILES) | IC50 [1] [µM] | EC50 [2] [µM] | logD [3]
O=C(O)c1ccc(-c2nc(C(=O)c3c(Cl)cccc3Cl)n3c2CCCC3)c(F)c1 | 1.1 | 0.077 | 1.5
O=C(O)c1ccc(-c2nc(C(=O)c3c(Cl)cccc3C(F)(F)F)n3ccncc23)cc1 |  | 2.6 | 0.7
COc1cccc(C(F)(F)F)c1C(=O)c1nc(-c2ccc(C(=O)O)cc2F)c2n1CCCC2 | 9.1 | 0.67 | 
N#Cc1cccc(Cl)c1C(=O)c1nc(-c2ccc(C(=O)O)cc2F)c2n1CCCC2 | 7.7 | 0.25 | 0.7
O=C(O)c1ccc(-c2nc(C(=O)c3ccccc3C(F)(F)F)n3c2CCCC3)c(F)c1 | 5.6 | 0.84 | 1.4
O=C(O)c1ccc(-c2nc(C(=O)c3c(F)cccc3Cl)n3c2CCCC3)c(F)c1 | 2.9 | 0.19 | 1.2
N#Cc1cccc(C(F)(F)F)c1C(=O)c1nc(-c2ccc(C(=O)O)cc2F)c2n1CCCC2 | > 10 | 0.22 | 0.7
COc1cccc(Cl)c1C(=O)c1nc(-c2ccc(C(=O)O)cc2F)c2n1CCCC2 | 5.5 | 0.24 | 0.8
O=C(O)c1ccc(-c2cn3c(n2)C(c2c(Cl)cccc2C(F)(F)F)OCC3)cc1 (centres undefined) |  | > 10 | 
O=C(O)c1ccc(-n2nc(C(=O)c3c(Cl)cccc3C(F)(F)F)c3c2CCCC3)cc1 |  | > 10 | -0.3
O=C(O)c1ccc(-c2nc(C(=O)c3c(Cl)cccc3C(F)(F)F)n3c2CCCC3)cc1 | 2.1 | 0.058 | 0.8
O=C(O)c1ccc(-c2nn(C(=O)c3c(Cl)cccc3C(F)(F)F)c3ccccc23)cc1 |  |  | 2.9
